Data as given in ChEMBL document CHEMBL1909046, “DrugMatrix in vitro pharmacology data”.

Columns and labels:
[1] = DRUGMATRIX: GABAA, Chloride Channel, TBOB radioligand binding (ligand: [3H] TBOB); type: cell membranes, Rattus norvegicus, Wistar, Cerebral cortex, Membrane; conditions: Not Active = under 50% inhibition at 10 µM
[2] = target: Beta-3 adrenergic receptor (Homo sapiens, UniProt P13945); experiment: DRUGMATRIX: Adrenergic beta3 radioligand binding (ligand: [125I] Cyanopindolol); type: cell membranes, HEK293, Membrane; conditions: hek293; Not Active = under 50% inhibition at 10 µM
Beta-3 adrenergic receptor, sequence (P13945 whole entry): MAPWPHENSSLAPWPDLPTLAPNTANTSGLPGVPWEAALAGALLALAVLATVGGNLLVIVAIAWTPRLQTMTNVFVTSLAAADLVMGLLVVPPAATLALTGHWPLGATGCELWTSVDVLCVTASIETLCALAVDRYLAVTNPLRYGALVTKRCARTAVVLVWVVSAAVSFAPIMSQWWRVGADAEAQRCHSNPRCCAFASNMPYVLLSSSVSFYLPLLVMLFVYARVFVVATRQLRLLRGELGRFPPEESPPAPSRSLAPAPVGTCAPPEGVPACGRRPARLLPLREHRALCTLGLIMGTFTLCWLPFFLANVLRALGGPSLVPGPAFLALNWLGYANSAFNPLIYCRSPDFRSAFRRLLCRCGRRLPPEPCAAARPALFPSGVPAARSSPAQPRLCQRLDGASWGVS

[3] = DRUGMATRIX: Platelet-Derived Growth Factor (PDGF) radioligand binding (ligand: [125I] PDGF); type: cell-based; conditions: nih3t3; Not Active = under 50% inhibition at 10 µM
[4] = target: 5-hydroxytryptamine receptor 6 (Homo sapiens, UniProt P50406); type: cell membranes, HeLa, Membrane; conditions: hela; further: in other assays of this panel Not Active means under 50% inhibition at 10 µM
5-hydroxytryptamine receptor 6, sequence (P50406 whole entry): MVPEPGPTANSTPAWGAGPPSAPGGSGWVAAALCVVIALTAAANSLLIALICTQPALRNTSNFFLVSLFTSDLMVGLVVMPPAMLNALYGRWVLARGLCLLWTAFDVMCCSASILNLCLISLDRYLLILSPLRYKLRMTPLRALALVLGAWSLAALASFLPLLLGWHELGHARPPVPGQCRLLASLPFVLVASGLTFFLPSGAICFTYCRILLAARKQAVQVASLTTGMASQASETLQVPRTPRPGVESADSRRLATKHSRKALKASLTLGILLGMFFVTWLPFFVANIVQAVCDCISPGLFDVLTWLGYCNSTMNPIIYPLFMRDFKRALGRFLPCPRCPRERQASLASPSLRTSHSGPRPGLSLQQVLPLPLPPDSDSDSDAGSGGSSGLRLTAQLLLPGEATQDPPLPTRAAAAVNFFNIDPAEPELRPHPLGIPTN

Estrogen receptor = target: T1, Estrogen receptor (Homo sapiens, UniProt P03372); conditions: sf9; further: in other assays of this panel Not Active means under 50% inhibition at 10 µM
T1 sequence (P03372 whole entry): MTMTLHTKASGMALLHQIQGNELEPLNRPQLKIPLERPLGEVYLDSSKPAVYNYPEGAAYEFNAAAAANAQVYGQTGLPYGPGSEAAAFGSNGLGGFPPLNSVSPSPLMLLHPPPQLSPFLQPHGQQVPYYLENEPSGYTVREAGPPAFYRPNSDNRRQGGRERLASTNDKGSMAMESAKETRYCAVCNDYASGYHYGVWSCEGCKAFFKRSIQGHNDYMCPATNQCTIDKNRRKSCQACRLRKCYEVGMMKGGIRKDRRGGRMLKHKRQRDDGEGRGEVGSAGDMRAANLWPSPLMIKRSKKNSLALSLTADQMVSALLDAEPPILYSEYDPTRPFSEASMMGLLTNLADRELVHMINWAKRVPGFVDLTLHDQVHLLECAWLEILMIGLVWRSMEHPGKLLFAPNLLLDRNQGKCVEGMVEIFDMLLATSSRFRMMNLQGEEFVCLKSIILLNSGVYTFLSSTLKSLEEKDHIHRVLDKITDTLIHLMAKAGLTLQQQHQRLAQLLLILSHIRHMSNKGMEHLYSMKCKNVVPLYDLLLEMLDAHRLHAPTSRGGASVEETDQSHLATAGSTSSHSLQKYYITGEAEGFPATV

[5] = target: T2, C-X-C chemokine receptor type 2 (Homo sapiens, UniProt P25025); type: cell membranes, Membrane; conditions: cho-k1; further: in other assays of this panel Not Active means under 50% inhibition at 10 µM
T2 sequence (P25025 whole entry): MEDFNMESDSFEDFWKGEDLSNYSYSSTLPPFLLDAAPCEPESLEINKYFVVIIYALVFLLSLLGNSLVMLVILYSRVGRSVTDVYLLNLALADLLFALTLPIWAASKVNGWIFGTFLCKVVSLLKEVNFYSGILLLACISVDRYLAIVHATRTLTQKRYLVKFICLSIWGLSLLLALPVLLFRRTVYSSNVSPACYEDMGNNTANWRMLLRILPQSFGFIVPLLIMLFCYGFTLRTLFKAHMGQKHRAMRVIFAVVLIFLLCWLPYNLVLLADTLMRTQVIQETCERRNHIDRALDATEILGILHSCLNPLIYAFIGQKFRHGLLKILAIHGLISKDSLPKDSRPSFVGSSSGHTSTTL

Cytochrome P450 3A4 = Cytochrome P450 3A4 (Homo sapiens, UniProt P08684); conditions: bti-tn-5b1-4; further: in other assays of this panel Not Active means under 50% inhibition at 10 µM
Cytochrome P450 3A4, sequence (P08684 whole entry): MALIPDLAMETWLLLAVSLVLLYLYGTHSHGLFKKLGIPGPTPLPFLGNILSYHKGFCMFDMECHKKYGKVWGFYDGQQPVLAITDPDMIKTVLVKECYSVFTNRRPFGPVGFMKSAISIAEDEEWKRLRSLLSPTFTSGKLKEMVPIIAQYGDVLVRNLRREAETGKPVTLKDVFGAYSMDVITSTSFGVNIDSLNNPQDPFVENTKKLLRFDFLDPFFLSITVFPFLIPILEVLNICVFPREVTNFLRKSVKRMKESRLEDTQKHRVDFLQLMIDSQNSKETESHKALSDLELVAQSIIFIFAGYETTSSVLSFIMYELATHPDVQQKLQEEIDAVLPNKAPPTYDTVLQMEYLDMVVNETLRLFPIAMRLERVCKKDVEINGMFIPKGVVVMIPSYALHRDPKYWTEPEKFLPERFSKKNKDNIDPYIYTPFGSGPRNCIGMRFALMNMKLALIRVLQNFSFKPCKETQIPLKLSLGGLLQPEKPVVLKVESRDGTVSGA

Cannabinoid receptor 1 = Cannabinoid receptor 1 (Homo sapiens, UniProt P21554); type: cell membranes, Chem-1, Membrane; conditions: chem-1; further: in other assays of this panel Not Active means under 50% inhibition at 10 µM
Cannabinoid receptor 1, sequence (P21554 whole entry): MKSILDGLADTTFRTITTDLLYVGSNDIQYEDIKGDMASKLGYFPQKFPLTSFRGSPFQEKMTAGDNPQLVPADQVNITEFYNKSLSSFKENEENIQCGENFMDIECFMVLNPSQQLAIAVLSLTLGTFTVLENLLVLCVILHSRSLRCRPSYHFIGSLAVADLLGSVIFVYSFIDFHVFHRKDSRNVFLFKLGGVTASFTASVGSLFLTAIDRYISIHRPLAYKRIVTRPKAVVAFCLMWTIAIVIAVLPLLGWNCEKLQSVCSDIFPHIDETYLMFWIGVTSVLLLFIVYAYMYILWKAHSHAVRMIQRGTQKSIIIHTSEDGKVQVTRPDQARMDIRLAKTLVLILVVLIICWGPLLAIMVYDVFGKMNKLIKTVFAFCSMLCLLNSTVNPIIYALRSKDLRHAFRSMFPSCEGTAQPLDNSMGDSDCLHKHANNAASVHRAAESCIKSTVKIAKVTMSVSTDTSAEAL

Nc1ccn([C@@H]2O[C@H](CO)[C@@H](O)[C@@H]2O)c(=O)n1 [CYTARABINE]
Not Active: IC50 [1] | Ki [1] | IC50 [2] | IC50 [3] | Ki [3] | IC50 [4] | IC50 (Estrogen receptor) | IC50 [5] | IC50 (Cytochrome P450 3A4) | Ki (Cytochrome P450 3A4) | IC50 (Cannabinoid receptor 1)

C[C@@H]1CC[C@@]2(OC1)O[C@H]1[C@@H](O)[C@H]3[C@@H]4CC[C@H]5C[C@@H](O[C@@H]6O[C@H](CO)[C@H](O[C@@H]7O[C@H](CO)C(O)[C@H](O[C@@H]8OC[C@@H](O)[C@H](O)[C@H]8O)[C@H]7O[C@@H]7O[C@H](CO)[C@H](O)[C@H](O[C@@H]8O[C@H](CO)[C@@H](O)[C@H](O)[C@H]8O)[C@H]7O)[C@H](O)[C@H]6O)[C@H](O)C[C@]5(C)[C@H]4CC[C@]3(C)[C@H]1[C@@H]2C (some centres undefined) [DIGITONIN]
Not Active: IC50 [1] | Ki [1] | IC50 [2] | IC50 [3] | Ki [3] | IC50 [4] | IC50 (Estrogen receptor) | IC50 [5] | IC50 (Cytochrome P450 3A4) | Ki (Cytochrome P450 3A4) | IC50 (Cannabinoid receptor 1)

OC(CCCN1CCCCC1)(c1ccccc1)c1ccccc1 [DIPHENIDOL]
Not Active: IC50 [1] | Ki [1] | IC50 [2] | IC50 [3] | Ki [3] | IC50 [4] | IC50 (Estrogen receptor) | IC50 [5] | IC50 (Cytochrome P450 3A4) | Ki (Cytochrome P450 3A4) | IC50 (Cannabinoid receptor 1)

Cn1c(=O)c2c(ncn2CC(O)CO)n(C)c1=O (centres undefined) [DYPHYLLINE]
Not Active: IC50 [1] | Ki [1] | IC50 [2] | IC50 [3] | Ki [3] | IC50 [4] | IC50 (Estrogen receptor) | IC50 [5] | IC50 (Cytochrome P450 3A4) | Ki (Cytochrome P450 3A4) | IC50 (Cannabinoid receptor 1)

CCC1(C)CC(=O)NC1=O (centres undefined) [ETHOSUXIMIDE]
Not Active: IC50 [1] | Ki [1] | IC50 [2] | IC50 [3] | Ki [3] | IC50 [4] | IC50 (Estrogen receptor) | IC50 [5] | IC50 (Cytochrome P450 3A4) | Ki (Cytochrome P450 3A4) | IC50 (Cannabinoid receptor 1)

C#C[C@]1(OC(C)=O)CC[C@H]2[C@@H]3CCC4=C[C@@H](OC(C)=O)CC[C@@H]4[C@H]3CC[C@@]21C [ETHYNODIOL DIACETATE]
Not Active: IC50 [1] | Ki [1] | IC50 [2] | IC50 [3] | Ki [3] | IC50 [4] | IC50 (Estrogen receptor) | IC50 [5] | IC50 (Cytochrome P450 3A4) | Ki (Cytochrome P450 3A4) | IC50 (Cannabinoid receptor 1)

C=CCc1ccc(O)c(OC)c1 [EUGENOL]
Not Active: IC50 [1] | Ki [1] | IC50 [2] | IC50 [3] | Ki [3] | IC50 [4] | IC50 (Estrogen receptor) | IC50 [5] | IC50 (Cytochrome P450 3A4) | Ki (Cytochrome P450 3A4) | IC50 (Cannabinoid receptor 1)

CC(C)(C)NC(=O)[C@H]1CC[C@H]2[C@@H]3CC[C@H]4NC(=O)C=C[C@]4(C)[C@H]3CC[C@]12C [FINASTERIDE]
Not Active: IC50 [1] | Ki [1] | IC50 [2] | IC50 [3] | Ki [3] | IC50 [4] | IC50 (Estrogen receptor) | IC50 [5] | IC50 (Cytochrome P450 3A4) | Ki (Cytochrome P450 3A4) | IC50 (Cannabinoid receptor 1)

Nc1ccn([C@@H]2O[C@H](CO)[C@@H](O)C2(F)F)c(=O)n1 [GEMCITABINE]
Not Active: IC50 [1] | Ki [1] | IC50 [2] | IC50 [3] | Ki [3] | IC50 [4] | IC50 (Estrogen receptor) | IC50 [5] | IC50 (Cytochrome P450 3A4) | Ki (Cytochrome P450 3A4) | IC50 (Cannabinoid receptor 1)

CC(C)NNC(=O)c1ccncc1 [IPRONIAZID]
Not Active: IC50 [1] | Ki [1] | IC50 [2] | IC50 [3] | Ki [3] | IC50 [4] | IC50 (Estrogen receptor) | IC50 [5] | IC50 (Cytochrome P450 3A4) | Ki (Cytochrome P450 3A4) | IC50 (Cannabinoid receptor 1)

O=c1cc(N2CCOCC2)oc2c(-c3ccccc3)cccc12 [LY-294002]
Not Active: IC50 [1] | Ki [1] | IC50 [2] | IC50 [3] | Ki [3] | IC50 [4] | IC50 (Estrogen receptor) | IC50 [5] | IC50 (Cytochrome P450 3A4) | Ki (Cytochrome P450 3A4) | IC50 (Cannabinoid receptor 1)

COc1ccc2[nH]cc(CCNC(C)=O)c2c1 [MELATONIN]
Not Active: IC50 [1] | Ki [1] | IC50 [2] | IC50 [3] | Ki [3] | IC50 [4] | IC50 (Estrogen receptor) | IC50 [5] | IC50 (Cytochrome P450 3A4) | Ki (Cytochrome P450 3A4) | IC50 (Cannabinoid receptor 1)

NC(=O)C[S+]([O-])C(c1ccccc1)c1ccccc1 (centres undefined) [MODAFINIL]
Not Active: IC50 [1] | Ki [1] | IC50 [2] | IC50 [3] | Ki [3] | IC50 [4] | IC50 (Estrogen receptor) | IC50 [5] | IC50 (Cytochrome P450 3A4) | Ki (Cytochrome P450 3A4) | IC50 (Cannabinoid receptor 1)

CCN(CC)CCOCCC1=CCC2CC1C2(C)C (centres undefined) [MYRTECAINE]
Not Active: IC50 [1] | Ki [1] | IC50 [2] | IC50 [3] | Ki [3] | IC50 [4] | IC50 (Estrogen receptor) | IC50 [5] | IC50 (Cytochrome P450 3A4) | Ki (Cytochrome P450 3A4) | IC50 (Cannabinoid receptor 1)
